Measurements published in patent publication US8450305B2, “Macrocyclic compounds useful as inhibitors of kinases and HSP90” (Universite de Strasbourg, priority 2006, dated 2013).

Tests used:
Aurora-A = target: T1, Aurora-A (Homo sapiens, UniProt O14965); experiment: Radiometric protein kinase assay, Aurora-A; type: biochemical; conditions: 1 μM ATP; read-out: Inhibitory activity (IC50:μM) Aurora-A
T1 construct: host or cells: Sf9 insect cells (baculovirus)
T1 sequence (O14965 1-403): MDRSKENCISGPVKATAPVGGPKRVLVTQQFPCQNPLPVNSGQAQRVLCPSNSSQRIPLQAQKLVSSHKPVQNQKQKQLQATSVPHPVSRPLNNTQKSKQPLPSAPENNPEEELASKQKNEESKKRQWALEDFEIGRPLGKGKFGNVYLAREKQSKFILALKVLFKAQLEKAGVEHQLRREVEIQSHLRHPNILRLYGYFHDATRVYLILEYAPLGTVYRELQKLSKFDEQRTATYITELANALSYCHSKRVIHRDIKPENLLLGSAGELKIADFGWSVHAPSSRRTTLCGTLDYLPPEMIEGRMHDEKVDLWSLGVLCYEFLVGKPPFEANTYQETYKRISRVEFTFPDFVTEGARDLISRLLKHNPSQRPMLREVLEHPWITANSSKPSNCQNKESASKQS
From the text: (§1) All protein kinases were expressed in Sf9 insect cells as human recombinant GST-fusion proteins or His-tagged proteins by means of the baculovirus expression system. Kinases were purified by affinity chromatography using either GSH-agarose (Sigma) or Ni-NTH-agarose (Qiagen). The purity of each kinase was checked by SDS-PAGE/silver staining and the identity of each kinase was verified by western blot analysis with kinase specific antibodies or by mass spectroscopy.
(§2) A radiometric protein kinase assay (^33PanQinase® Activity Assay) was used for measuring the kinase activity of the 24 protein kinases. All kinase assays were performed in 96-well FlashPlates™ from Perkin Elmer (Boston, Mass., USA) in a 50 μl reaction volume. The reaction cocktail was pipetted in 4 steps in the following order: • 20 μl of assay buffer • 5 μl of ATP solution (in H2O) • 5 μl of test compound (in 10% DMSO) • 10 μl of substrate/10 […] of enzyme solution (premixed)
(§3) The assay for all enzymes contained 60 mM HEPES-NaOH, pH 7.5, 3 mM MgCl2, 3 mM MnCl2, 3 μM Na-orthovanadate, 1.2 mM DTT, 50 μg/ml PEG20000, 1 μM [γ-^33P]-ATP (approx. 5×10^05 cpm per well).
(§4) For the 24 kinase assays, the following amounts of enzyme and substrate were used per well:
(§5) The reaction cocktails were incubated at 30° C. for 80 minutes. The reaction was stopped with 50 μl of 2% (v/v) H3PO4, plates were aspirated and washed two times with 200 μl of 0.9% (w/v) NaCl or 200 μl H2O. Incorporation of ^33Pi was determined with a microplate scintillation counter (Microbeta Trilux, Wallac).
(§6) The median value of the counts in column 1 (n=8) of each assay plate was defined as “low control”. This value reflects unspecific binding of radioactivity to the plate in the absence of a protein kinase but in the presence of the substrate. The median value of the counts in column 7 of each assay plate (n=8) was taken as the “high control”, i.e. full activity in the absence of any inhibitor. The difference between high and low control was taken as 100% activity.
(§7) As part of the data evaluation the low control value from a particular plate was subtracted from the high control value as well as from all 80 “compound values” of the corresponding plate. The residual activity (in %) for each well of a particular plate was calculated by using the following formula: Res. Activity (%)=100×[(cpm of compound−low control)/(high control−low control)]
(§8) The residual activities for each concentration and the compound IC50 values were calculated using Quattro Workflow V2.1.0.0 (Quattro Research GmbH, Munich, Germany; www.quattro-research.com). The model used was “Sigmoidal response (variable slope)” with parameters “top” fixed at 100% and “bottom” at 0%.

HCC1954 tumor cells = experiment: Cytotoxicity, MTS assay, HCC1954; type: cell-based; conditions: Homo sapiens, 72 hours
Procedure: (§9) Tumor cells were grown as adherent monolayers at 37° C. in a humidified atmosphere (5% CO2, 95% air). The culture medium was RPMI 1640 containing 2 mM L-glutamine (Ref BE12-702F, Cambrex, Verviers, Belgium) and supplemented with 10% fetal bovine serum (Ref DE14-801E, Cambrex). For experimental use, the adherent tumour cells were detached from the culture flask by a 5-minute treatment with trypsin-versene (Ref O2-007E, Cambrex), diluted in Hanks' medium without calcium or magnesium (Ref BE10-543F, Cambrex) and neutralized by addition of complete culture medium. Before use, cells were counted in a hemocytometer and their viability were assessed by 0.25% trypan blue exclusion. Mycoplasma detection was performed using the MycoAlert® Mycoplasma Detection Kit (Ref LT07-318, Cambrex) in accordance with the manufacturer instructions. The MycoAlert®Assay is a selective biochemical test that exploits the activity of mycoplasmal enzymes. The viable mycoplasma are lysed and the enzymes react with the MycoAlert® substrate catalyzing the conversion of ADP to ATP. By measuring the level of ATP in a sample both before and after the addition of the MycoAlert® substrate a ratio can be obtained which is indicative of the presence or absence of mycoplasma. The mycoplasma test was assayed in duplicate from the culture supernatants of the cell lines and compared to negative and positive controls (MycoAlert® Assay Control Set, Ref LT07-518, Cambrex) (Internal Standard Operating Procedure No TEC-007/002). Both HCC1954 and SK-BR-3 tumour cells (5,000 cells per well) were plated in 96-well flat-bottom microtitration plates (Ref 167008, Nunc, Dutscher, Brumath, France) and incubated at 37° C. for 24 hours before treatment in 190 μl of drug-free culture medium supplemented with 10% FBS. Both HCC1954 and SK-BR-3 tumour cell lines were incubated for 72 hours with […], in ¼ dilution steps, of the test substances (ranging from […]) to be tested as well as paclitaxel (ranging from 10^−7 to 10^−12 M). The cells (190 μl) will be incubated in a 200 μl final volume of culture medium supplemented with 10% FBS containing test substances at 37° C. under 5% CO2. One experiment is performed, each concentration being issued from quadruplicate. Control cells are treated with corresponding vehicle alone. At the end of treatments, the cytotoxic activity is evaluated by a MTS assay. […] Like MTT, MTS is bioreduced by cells into a formazan product that is directly soluble in culture medium without processing, unlike MTT.
(§10) At the end of the cells treatment, 40 μl of a 0.22 μm filtered freshly combined solution of MTS (20 ml at 2 mg/ml, Ref G1111A, Promega, Charbonnières, France) and PMS (1 ml at 0.92 mg/ml, Ref P9625, Sigma) in Dulbecco's Phosphate Buffered Saline (DPBS, Ref 17-513F, Cambrex), were added in each well. Culture plates were incubated for 2 h at 37° C. Absorbency (OD) will be measured at 490 nm in each well using VICTOR^3™ 1420 multilabeled counter (Wallac, PerkinElmer, Courtaboeuf, France).

SK-BR-3 tumor cells = experiment: Cytotoxicity, MTS assay, SK-BR-3; type: cell-based; conditions: Homo sapiens, 72 hours
Procedure: as §9, §10

HSP90 = HSP90 (Homo sapiens, UniProt P07900); experiment: HSP90 affinity, competition assay with geldanamycin; type: binding
IGF1-R = target: T2, IGF1-R (Homo sapiens, UniProt P08069); experiment: Radiometric protein kinase assay, IGF1-R; type: biochemical; conditions: 1 μM ATP; read-out: Inhibitory activity (IC50:μM) IGF1-R
T2 construct: host or cells: Sf9 insect cells (baculovirus)
T2 sequence (P08069 31-1367): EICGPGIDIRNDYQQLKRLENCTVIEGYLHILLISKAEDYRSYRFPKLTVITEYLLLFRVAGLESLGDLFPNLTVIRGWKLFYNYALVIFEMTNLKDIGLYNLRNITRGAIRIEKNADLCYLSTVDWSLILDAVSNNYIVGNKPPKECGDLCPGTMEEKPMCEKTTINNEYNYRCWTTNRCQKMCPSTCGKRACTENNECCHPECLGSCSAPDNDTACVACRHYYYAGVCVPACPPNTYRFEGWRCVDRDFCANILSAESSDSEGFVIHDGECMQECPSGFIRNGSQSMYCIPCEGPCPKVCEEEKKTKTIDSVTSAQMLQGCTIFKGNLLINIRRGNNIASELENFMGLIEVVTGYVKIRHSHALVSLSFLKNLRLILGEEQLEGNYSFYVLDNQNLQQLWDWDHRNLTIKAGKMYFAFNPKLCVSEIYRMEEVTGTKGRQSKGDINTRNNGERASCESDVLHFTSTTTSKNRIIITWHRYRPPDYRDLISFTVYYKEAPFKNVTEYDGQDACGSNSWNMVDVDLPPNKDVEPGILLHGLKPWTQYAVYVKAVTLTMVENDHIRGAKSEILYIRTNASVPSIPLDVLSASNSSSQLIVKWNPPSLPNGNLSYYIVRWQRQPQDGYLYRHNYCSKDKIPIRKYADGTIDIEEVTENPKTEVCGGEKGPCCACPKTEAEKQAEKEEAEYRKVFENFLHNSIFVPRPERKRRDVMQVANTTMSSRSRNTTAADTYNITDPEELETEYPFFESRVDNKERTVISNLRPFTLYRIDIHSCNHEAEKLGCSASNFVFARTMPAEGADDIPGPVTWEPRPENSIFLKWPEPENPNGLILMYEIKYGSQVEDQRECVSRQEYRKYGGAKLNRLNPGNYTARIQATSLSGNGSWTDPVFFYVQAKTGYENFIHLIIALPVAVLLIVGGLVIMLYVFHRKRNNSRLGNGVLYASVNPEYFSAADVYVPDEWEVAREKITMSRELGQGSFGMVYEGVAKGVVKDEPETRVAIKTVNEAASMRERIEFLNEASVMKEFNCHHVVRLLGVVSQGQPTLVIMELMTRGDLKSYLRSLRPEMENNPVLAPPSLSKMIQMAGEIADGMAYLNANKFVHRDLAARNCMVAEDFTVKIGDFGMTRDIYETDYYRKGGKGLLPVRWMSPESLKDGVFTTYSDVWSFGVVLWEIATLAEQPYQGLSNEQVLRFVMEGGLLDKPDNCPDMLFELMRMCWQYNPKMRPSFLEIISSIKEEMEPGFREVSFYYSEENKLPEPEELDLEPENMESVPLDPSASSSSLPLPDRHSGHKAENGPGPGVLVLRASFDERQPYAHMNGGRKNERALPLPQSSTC
From the text: as §1, §2, §3, §4, §5, §6, §7, §8

panel of 24 kinase = experiment: Radiometric protein kinase assay (33PanQinase), panel of 24 kinases; type: biochemical, human; conditions: at 10 μM
From the text: as §1
A radiometric protein kinase assay (^33PanQinase® Activity Assay) was used for measuring the kinase activity of the 24 protein kinases.
as §3, §5, §6, §7

`O=C1Cc2c(Cl)c(O)cc(O)c2C(=O)O[C@H](c2ccccc2)C/C=C/CCC(Cl)C1` (stereo partly shown) [A3] was tested. Which IC50 (Aurora-A) did it give?
Its IC50 is 12 µM.

With `CCON=C1/C=C/CC/C=C/CCOC(=O)c2c(O)cc(O)c(Cl)c2C1` [2a-22] as the molecule, how does the EC50 (HCC1954 tumor cells) read?
The EC50 was 9.8 µM.

What about the EC50 (SK-BR-3 tumor cells) of the same molecule?
Its EC50 is 3.8 µM.

Which results are given for `O=C1OCC/C=C/CCCC/C(=N/OCC(=O)N2CCCCC2)Cc2c(Cl)c(O)cc(O)c21` [2a-6]?
EC50 (HCC1954 tumor cells): 5.2 µM; EC50 (SK-BR-3 tumor cells): > 10 µM

How did the “affinity for / inhibition of HSP90 (in words)” value (HSP90) turn out when `CCOCOc1cc(OCOCC)c2c(c1Cl)CC(=O)C=CCCC=CCC(C)OC2=O` (stereo not shown) [2-112, 1-Chloro-2,4-bis-ethoxymethoxy-7-methyl-7,8,11,12-tetrahydro-16H-6-oxa-benzocyclotetradecene-5,15-dione] was run?
The value was “no affinity”.

For `O=C1OCC/C=C\CC/C=C/C(=NOCC(=O)N2CCCCC2)Cc2c(Cl)c(O)cc(O)c21` [2a-5], which EC50 (HCC1954 tumor cells) is on record?
Its EC50 is 9.5 µM.

What about the EC50 (SK-BR-3 tumor cells) of the same molecule?
Its EC50 is 2.5 µM.

For `O=C1/C=C/CCC2OC2C[C@H](c2ccccc2)OC(=O)c2c(O)cc(O)c(Cl)c2C1` (stereo partly shown) [A5], which IC50 (IGF1-R) is on record?
The IC50 was 11 µM.

With `C[C@@H]1C/C=C/CC/C=C/C(=N/OCC(=O)N2CCCCC2)Cc2c(Cl)c(O)cc(O)c2C(=O)O1` [2a-9] as the molecule, how does the EC50 (HCC1954 tumor cells) read?
The EC50 was 0.89 µM.

What about the EC50 (SK-BR-3 tumor cells) of the same molecule?
The EC50 was 0.45 µM.

Which results are given for `O=C1OCC/C=C/CC/C=C/C(=NOCc2ccccc2)Cc2c(Cl)c(O)cc(O)c21` [2a-3]?
EC50 (HCC1954 tumor cells): 3 µM; EC50 (SK-BR-3 tumor cells): 4.5 µM

With `CCOCOc1cc2c(c(OCOCC)c1)C(=O)OC(C)CC=CCCC=CC(=O)C2` (stereo not shown) [2-120, 2,4-Bis-ethoxymethoxy-7-methyl-7,8,11,12-tetrahydro-16H-6-oxa-benzocyclotetradecene-5,15-dione] as the molecule, how does the “affinity for / inhibition of HSP90 (in words)” value (HSP90) read?
The value was “no affinity”.

`COC1CC/C=C/CCOC(=O)c2c(O)cc(O)c(Cl)c2C/C(=N/OCC(=O)N2CCCCC2)C1` (stereo not shown) [2a-10] was tested. Which EC50 (HCC1954 tumor cells) did it give?
The EC50 was greater than 10 µM.

What about the EC50 (SK-BR-3 tumor cells) of the same molecule?
The EC50 was greater than 10 µM.

For `C[C@@H]1C/C=C/CC/C=C/C(=O)Cc2c(Cl)c(O)cc(O)c2C(=O)O1` [2a-14], which EC50 (HCC1954 tumor cells) is on record?
Its EC50 is 1.2 µM.

What about the EC50 (SK-BR-3 tumor cells) of the same molecule?
Its EC50 is 2.8 µM.

How did the EC50 (HCC1954 tumor cells) turn out when `O=C1OCC/C=C/CC/C=C/C(=NOCC(=O)N2CCCCCC2)Cc2c(Cl)c(O)cc(O)c21` [2a-11] was run?
Its EC50 is 0.52 µM.

What about the EC50 (SK-BR-3 tumor cells) of the same molecule?
The EC50 was 0.31 µM.

`C[C@@H]1C/C=C/CC/C=C/C(=O)Cc2c(Cl)c(O)cc(O)c2C(=O)O1` [pochonin D, reference compound] was tested. Which IC50 (HSP90) did it give?
The IC50 was 0.08 µM.

What about the “inhibition in a panel of 24 kinase” value (panel of 24 kinase) of the same molecule?
Its value is “no significant activity”.
